Reference: US9682940B2, “Indazole derivatives useful as CB-1 inverse agonists” (Janssen Pharmaceutica NV, priority 2015, dated 2017)

Legend:
[1] = target: Human CB2R (Cannabanoid receptor 2) (Homo sapiens (Human), UniProt P34972); experiment: CB-2 in vitro cAMP (HTRF) assay in HEK-293 cells; format: cell-based; settings: HEK-293 cells stably transfected with human CB2R, 250 nM Forskolin, mean where tested more than once, read-out: CB-2 (HEK_cAMP) EC50
Summary of the method: (§1)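 HEK-293 cells stably expressing human CB1 or CB2 plated overnight, then tested in HBSS/5 mM HEPES/0.1% BSA with 0.5 mM IBMX and forskolin (1.5 μM working dilution). Intracellular cAMP quantified by competitive HTRF immunoassay (d2-cAMP, cryptate anti-cAMP) against a cAMP standard curve; compounds as 1/3 serial dilutions from 10 mM DMSO stocks.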

[2] = target: Human CB1R (Cannabanoid receptor 1) (Homo sapiens (Human), UniProt P21554); experiment: CB-1 in vitro cAMP (HTRF) assay in HEK-293 cells; format: cell-based; settings: HEK-293 cells stably transfected with human CB1R, 250 nM Forskolin, mean where tested more than once, read-out: CB-1 (HEK_cAMP) EC50
Chain of Human CB1R (Cannabanoid receptor 1) (P21554 whole entry): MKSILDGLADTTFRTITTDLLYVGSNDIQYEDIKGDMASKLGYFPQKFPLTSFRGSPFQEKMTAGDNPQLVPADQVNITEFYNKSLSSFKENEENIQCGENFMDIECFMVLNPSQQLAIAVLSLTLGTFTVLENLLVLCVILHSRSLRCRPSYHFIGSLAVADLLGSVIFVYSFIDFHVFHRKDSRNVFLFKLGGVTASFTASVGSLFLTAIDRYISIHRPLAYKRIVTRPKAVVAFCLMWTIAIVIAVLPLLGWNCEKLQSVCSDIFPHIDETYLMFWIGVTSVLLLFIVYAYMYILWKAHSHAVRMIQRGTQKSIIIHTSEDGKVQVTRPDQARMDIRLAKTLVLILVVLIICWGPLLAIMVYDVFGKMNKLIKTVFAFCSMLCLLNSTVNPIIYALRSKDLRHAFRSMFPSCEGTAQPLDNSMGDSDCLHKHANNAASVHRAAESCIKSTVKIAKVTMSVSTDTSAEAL
Summary of the method: as §1

Chain of Human CB2R (Cannabanoid receptor 2) (P34972 whole entry): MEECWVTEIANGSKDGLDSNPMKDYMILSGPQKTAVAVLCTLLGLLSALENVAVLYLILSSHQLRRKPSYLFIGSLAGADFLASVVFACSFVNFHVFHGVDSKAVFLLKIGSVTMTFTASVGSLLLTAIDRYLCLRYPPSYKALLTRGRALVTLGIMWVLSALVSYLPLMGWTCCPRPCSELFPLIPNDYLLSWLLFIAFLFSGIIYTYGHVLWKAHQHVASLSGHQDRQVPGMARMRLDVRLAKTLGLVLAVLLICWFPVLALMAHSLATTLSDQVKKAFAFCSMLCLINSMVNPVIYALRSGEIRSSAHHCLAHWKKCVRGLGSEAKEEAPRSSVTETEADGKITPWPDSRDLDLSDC

Structure (SMILES): O=C(O)c1csc(CN2CCC(c3nn(C4CC4)c4ccc(C(c5ccc(Cl)cc5)c5ccc(Cl)cc5)cc34)CC2)c1 [Compound 227]
- EC50 [1]: > 10 µM
- EC50 [2]: 0.084 µM

Structure (SMILES): O=C(O)c1ccc(CN2CCC(c3c4cc(C(c5ccc(Cl)cc5)c5ccc(Cl)cc5)ccc4nn3C3CC3)CC2)o1 [Compound 228, 5-((4-(5-(bis(4-chlorophenyl)methyl)-2-cyclopropyl-2H-indazol-3-yl)piperidin-1-yl)methyl)furan-2-carboxylic acid]
- EC50 [1]: > 10 µM
- EC50 [2]: 0.02 µM

Structure (SMILES): O=C(NCCO)c1ccc(-n2nc(C3CCN(S(=O)(=O)C(F)(F)F)CC3)c3cc(C(c4ccc(Cl)cc4)c4ccc(Cl)cc4)ccc32)cc1 [Compound 229]
- EC50 [1]: > 10 µM
- EC50 [2]: 0.037 µM

Structure (SMILES): O=C(O)CCNC(=O)c1ccc(-n2nc(C3CCN(S(=O)(=O)C(F)(F)F)CC3)c3cc(C(c4ccc(Cl)cc4)c4ccc(Cl)cc4)ccc32)cc1 [Compound 230]
- EC50 [1]: > 10 µM
- EC50 [2]: 3.26 µM

Structure (SMILES): O=C(O)c1ccc([C@H](c2ccc(Cl)cc2)c2ccc3[nH]nc(C4CCN(S(=O)(=O)C(F)(F)F)CC4)c3c2)cc1 [Compound 231]
- EC50 [1]: > 10 µM
- EC50 [2]: 4.2 µM

Structure (SMILES): O=C(O)c1ccc([C@H](c2ccc(Cl)cc2)c2ccc3[nH]nc(N4CCN(S(=O)(=O)C(F)(F)F)CC4)c3c2)cc1 [Compound 233]
- EC50 [1]: > 10 µM
- EC50 [2]: 3.55 µM

Structure (SMILES): NC(=O)c1csc(CS(=O)(=O)N2CCC(c3nn(C4CC4)c4ccc(C(c5ccc(Cl)cc5)c5ccc(Cl)cc5)cc34)CC2)c1 [Compound 235]
- EC50 [1]: > 10 µM
- EC50 [2]: 0.022 µM

Structure (SMILES): O=C(O)c1ccc(CS(=O)(=O)N2CCC(c3nn(C4CC4)c4ccc(C(c5ccc(Cl)cc5)c5ccc(Cl)cc5)cc34)CC2)s1 [Compound 236]
- EC50 [1]: > 10 µM
- EC50 [2]: 0.068 µM

Structure (SMILES): NC(=O)c1csc(CN2CCC(c3c4cc(C(c5ccc(Cl)cc5)c5ccc(Cl)cc5)ccc4nn3C3CC3)CC2)c1 [Compound 237, 5-((4-(5-(bis(4-chlorophenyl)methyl)-2-cyclopropyl-2H-indazol-3-yl)piperidin-1-yl)methyl)thiophene-3-carboxamide]
- EC50 [1]: > 10 µM
- EC50 [2]: 0.005 µM

Structure (SMILES): O=C(O)c1ccc(C(c2ccc(Cl)cc2)c2ccc3nn(C4CC4)c(C4CCN(S(=O)(=O)C(F)(F)F)CC4)c3c2)cc1 (centres unmarked) [Compound 238, 4-[(4-chlorophenyl) ([2-cyclopropyl-3-[1-(trifluoromethane)sulfonylpiperidin-4-yl]-2H-indazol-5-yl])methyl]benzoic acid]
- EC50 [1]: > 10 µM
- EC50 [2]: 0.198 µM

Structure (SMILES): O=C(O)c1csc(CN2CCC(c3c4cc(C(c5ccc(Cl)cc5)c5ccc(Cl)cc5)ccc4nn3C3CC3)CC2)c1 [Compound 239, 5-((4-(5-(bis(4-chlorophenyl)methyl)-2-cyclopropyl-2H-indazol-3-yl)piperidin-1-yl)methyl)thiophene-3-carboxylic acid]
- EC50 [1]: > 10 µM
- EC50 [2]: 0.043 µM

Structure (SMILES): O=C(O)c1ccc(C(c2ccc(Cl)cc2)c2ccc3[nH]nc(C4CCN(S(=O)(=O)C(F)(F)F)CC4)c3c2)cn1 (centres unmarked) [Compound 241]
- EC50 [1]: > 10 µM
- EC50 [2]: 1.63 µM

Structure (SMILES): O=C(O)c1ccc(CN2CCC(c3c4cc(C(c5ccc(Cl)cc5)c5ccc(Cl)cc5)ccc4nn3C3CC3)CC2)s1 [Compound 242, 5-((4-(5-(bis(4-chlorophenyl)methyl)-2-cyclopropyl-2H-indazol-3-yl)piperidin-1-yl)methyl)thiophene-2-carboxylic acid]
- EC50 [1]: > 10 µM
- EC50 [2]: 0.016 µM

Structure (SMILES): O=C(O)c1cccc(CN2CCC(c3nn(C4CC4)c4ccc(C(c5ccc(F)cc5)c5ccc(F)cc5)cc34)CC2)c1 [Compound 243]
- EC50 [1]: > 10 µM
- EC50 [2]: 0.285 µM

Structure (SMILES): Cc1ccc(C(c2ccc(C)cc2)c2ccc3c(c2)c(C2CCN(Cc4cccc(C(=O)O)c4)CC2)nn3C2CC2)cc1 [Compound 244]
- EC50 [1]: > 10 µM
- EC50 [2]: 0.048 µM

Structure (SMILES): O=C(O)c1cccc(CN2CCC(c3nn(C4CC4)c4ccc(C(c5ccccc5)c5ccc(Cl)cc5)cc34)CC2)c1 (centres unmarked) [Compound 245]
- EC50 [1]: > 10 µM
- EC50 [2]: 0.02 µM

Structure (SMILES): O=C(O)c1cccc(CN2CCC(c3nn(C4CC4)c4ccc(C(c5ccc(F)cc5)c5ccc(Cl)cc5)cc34)CC2)c1 (centres unmarked) [Compound 246]
- EC50 [1]: > 10 µM
- EC50 [2]: 0.029 µM

Structure (SMILES): Cc1ccc(C(c2ccc(Cl)cc2)c2ccc3c(c2)c(C2CCN(Cc4cccc(C(=O)O)c4)CC2)nn3C2CC2)cc1 (centres unmarked) [Compound 247]
- EC50 [1]: > 10 µM
- EC50 [2]: 0.02 µM

Structure (SMILES): O=C(O)c1cccc(CN2CCC(c3nn(C4CC4)c4ccc(C(c5ccc(Cl)cc5)c5ccc(C(F)(F)F)cc5)cc34)CC2)c1 (centres unmarked) [Compound 248]
- EC50 [1]: > 10 µM
- EC50 [2]: 0.041 µM

Structure (SMILES): NC(=O)c1ccc(C(c2ccc(Cl)cc2)c2ccc3nn(C4CC4)c(C4CCN(S(=O)(=O)C(F)(F)F)CC4)c3c2)cc1 (centres unmarked) [Compound 249, 4-((4-chlorophenyl)(2-cyclopropyl-3-(1-(trifluoromethylsulfonyl)piperidin-4-yl)-2H-indazol-5-yl)methyl)benzamide]
- EC50 [1]: > 10 µM
- EC50 [2]: 0.015 µM

Structure (SMILES): O=C(O)c1ccc(CN2CCC(c3nn(C4CC4)c4ccc(C(c5ccc(Cl)cc5)c5ccc(Cl)cc5)cc34)CC2)o1 [Compound 250]
- EC50 [1]: > 10 µM
- EC50 [2]: 0.043 µM

Structure (SMILES): O=C(O)c1cccc(CN2CCC(c3c4cc(C(c5ccc(Cl)cc5)c5ccc(Cl)cc5)ccc4nn3C3CC3)CC2)n1 [Compound 251, 6-((4-(5-(bis(4-chlorophenyl)methyl)-2-cyclopropyl-2H-indazol-3-yl)piperidin-1-yl)methyl)picolinic acid]
- EC50 [1]: > 10 µM
- EC50 [2]: 0.014 µM

Structure (SMILES): O=C(O)c1ccc(CN2CCC(c3c4cc(C(c5ccc(Cl)cc5)c5ccc(Cl)cc5)ccc4nn3C3CC3)CC2)nc1 [Compound 252]
- EC50 [1]: > 10 µM
- EC50 [2]: 0.077 µM

Structure (SMILES): NC(=O)c1ccc(C(c2ccc(Cl)cc2)c2ccc3[nH]nc(C4CCN(S(=O)(=O)C(F)(F)F)CC4)c3c2)cn1 (centres unmarked) [Compound 253]
- EC50 [1]: 6.93 µM
- EC50 [2]: 0.011 µM

Structure (SMILES): O=C(O)c1ccc(CN2CCC(c3nn(C4CC4)c4ccc(C(c5ccc(Cl)cc5)c5ccc(Cl)cc5)cc34)CC2)s1 [Compound 254]
- EC50 [1]: > 10 µM
- EC50 [2]: 0.016 µM

Structure (SMILES): O=C(O)c1cncc(CN2CCC(c3c4cc(C(c5ccc(Cl)cc5)c5ccc(Cl)cc5)ccc4nn3C3CC3)CC2)c1 [Compound 255, 5-((4-(5-(bis(4-chlorophenyl)methyl)-2-cyclopropyl-2H-indazol-3-yl)piperidin-1-yl)methyl)nicotinic acid]
- EC50 [1]: > 10 µM
- EC50 [2]: 0.034 µM

Structure (SMILES): O=C(O)c1ccc(CN2CCC(c3c4cc(C(c5ccc(Cl)cc5)c5ccc(Cl)cc5)ccc4nn3C3CC3)CC2)cc1 [Compound 256, 4-((4-(5-(bis(4-chlorophenyl)methyl)-2-cyclopropyl-2H-indazol-3-yl)piperidin-1-yl)methyl)benzoic acid]
- EC50 [1]: > 10 µM
- EC50 [2]: 0.03 µM

Structure (SMILES): O=C(O)c1cccc(CN2CCC(c3c4cc(C(c5ccc(Cl)cc5)c5ccc(Cl)cc5)ccc4nn3C3CC3)CC2)c1 [Compound 257, 3-((4-(5-(bis(4-chlorophenyl)methyl)-2-cyclopropyl-2H-indazol-3-yl)piperidin-1-yl)methyl)benzoic acid]
- EC50 [1]: > 5 µM
- EC50 [2]: 0.013 µM

Structure (SMILES): COC(=O)c1ccc(CN2CCC(c3n[nH]c4ccc(C(c5ccc(Cl)cc5)c5ccc(Cl)cc5)cc34)CC2)cc1 [Compound 258]
- EC50 [1]: > 42 µM
- EC50 [2]: 0.428 µM

Structure (SMILES): COC(=O)c1cccc(CN2CCC(c3n[nH]c4ccc(C(c5ccc(Cl)cc5)c5ccc(Cl)cc5)cc34)CC2)c1 [Compound 259]
- EC50 [1]: > 42 µM
- EC50 [2]: 0.374 µM

Structure (SMILES): COC(=O)c1ccc(S(=O)(=O)N2CCC(c3n[nH]c4ccc(C(c5ccc(Cl)cc5)c5ccc(Cl)cc5)cc34)CC2)o1 [Compound 260]
- EC50 [1]: > 42 µM
- EC50 [2]: 0.025 µM

Structure (SMILES): O=C(O)c1ccc(S(=O)(=O)N2CCC(c3n[nH]c4ccc(C(c5ccc(Cl)cc5)c5ccc(Cl)cc5)cc34)CC2)s1 [Compound 261]
- EC50 [1]: 6.82 µM
- EC50 [2]: 0.271 µM

Structure (SMILES): O=C(NCc1ccccc1)N1CCC(c2n[nH]c3ccc(C(c4ccc(Cl)cc4)c4ccc(Cl)cc4)cc23)CC1 [Compound 262]
- EC50 [1]: > 10 µM
- EC50 [2]: 0.672 µM

Structure (SMILES): O=C(NC1CCCC1)N1CCC(c2n[nH]c3ccc(C(c4ccc(Cl)cc4)c4ccc(Cl)cc4)cc23)CC1 [Compound 263]
- EC50 [1]: 2.33 µM
- EC50 [2]: 0.234 µM

Structure (SMILES): CCNC(=O)N1CCC(c2n[nH]c3ccc(C(c4ccc(Cl)cc4)c4ccc(Cl)cc4)cc23)CC1 [Compound 264]
- EC50 [1]: 4.27 µM
- EC50 [2]: 0.199 µM

Structure (SMILES): O=C(OCc1ccccc1)N1CCC(c2n[nH]c3ccc(C(c4ccc(Cl)cc4)c4ccc(Cl)cc4)cc23)CC1 [Compound 265]
- EC50 [1]: > 10 µM
- EC50 [2]: 0.208 µM

Structure (SMILES): O=C(Oc1ccccc1)N1CCC(c2n[nH]c3ccc(C(c4ccc(Cl)cc4)c4ccc(Cl)cc4)cc23)CC1 [Compound 267]
- EC50 [1]: > 2 µM
- EC50 [2]: 0.079 µM

Structure (SMILES): CCOC(=O)N1CCC(c2n[nH]c3ccc(C(c4ccc(Cl)cc4)c4ccc(Cl)cc4)cc23)CC1 [Compound 268]
- EC50 [1]: 12.4 µM
- EC50 [2]: 0.032 µM

Structure (SMILES): O=C(O)c1ccc(S(=O)(=O)N2CCC(c3n[nH]c4ccc(C(c5ccc(Cl)cc5)c5ccc(Cl)cc5)cc34)C2)cc1 (centres unmarked) [Compound 269]
- EC50 [1]: > 10 µM
- EC50 [2]: 0.59 µM

Structure (SMILES): O=C(O)c1ccc(S(=O)(=O)N2CCC(c3n[nH]c4ccc(C(c5ccc(Cl)cc5)c5ccc(Cl)cc5)cc34)C2)o1 (centres unmarked) [Compound 270]
- EC50 [1]: > 10 µM
- EC50 [2]: 9.6 µM

Structure (SMILES): O=C(OC1CCCC1)N1CCC(c2n[nH]c3ccc(C(c4ccc(Cl)cc4)c4ccc(Cl)cc4)cc23)CC1 [Compound 271]
- EC50 [1]: > 10 µM
- EC50 [2]: 0.04 µM

Structure (SMILES): O=C(O)c1cccc(CN2CCC(c3n[nH]c4ccc(C(c5ccc(Cl)cc5)c5ccc(Cl)cc5)cc34)C2)c1 (centres unmarked) [Compound 272]
- EC50 [1]: > 10 µM
- EC50 [2]: 0.333 µM

Structure (SMILES): O=C(O)c1cccc(S(=O)(=O)N2CCC(c3n[nH]c4ccc(C(c5ccc(Cl)cc5)c5ccc(Cl)cc5)cc34)C2)c1 (centres unmarked) [Compound 273]
- EC50 [1]: > 10 µM
- EC50 [2]: 6.8 µM
